Measured values: PubChem BioAssay AID743339 (Broad Institute, 2014)
Activity calls are given as the source filed them.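 The calls were made as follows: active = activation curve crossing 200% at or below the highest valid dose tested for that sample; inconclusive = flat curve with activation between 30 and 70%, or poor fit; inactive = the rest, including signal falling instead of rising.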

Target: Leucyl-cystinyl aminopeptidase (Mus musculus) (UniProt Q8C129)
Assay: IRAP activators, dose response, selectivity assay for ERAP1 modulator project, biochemical, Leu-AMC fluorescence, cherry-picked samples (AID 743339)
Conditions: purified IRAP, Leu-AMC cleavage fluorescence, 1 h

Chain of Leucyl-cystinyl aminopeptidase (Mus musculus) (Q8C129 whole entry, looked up): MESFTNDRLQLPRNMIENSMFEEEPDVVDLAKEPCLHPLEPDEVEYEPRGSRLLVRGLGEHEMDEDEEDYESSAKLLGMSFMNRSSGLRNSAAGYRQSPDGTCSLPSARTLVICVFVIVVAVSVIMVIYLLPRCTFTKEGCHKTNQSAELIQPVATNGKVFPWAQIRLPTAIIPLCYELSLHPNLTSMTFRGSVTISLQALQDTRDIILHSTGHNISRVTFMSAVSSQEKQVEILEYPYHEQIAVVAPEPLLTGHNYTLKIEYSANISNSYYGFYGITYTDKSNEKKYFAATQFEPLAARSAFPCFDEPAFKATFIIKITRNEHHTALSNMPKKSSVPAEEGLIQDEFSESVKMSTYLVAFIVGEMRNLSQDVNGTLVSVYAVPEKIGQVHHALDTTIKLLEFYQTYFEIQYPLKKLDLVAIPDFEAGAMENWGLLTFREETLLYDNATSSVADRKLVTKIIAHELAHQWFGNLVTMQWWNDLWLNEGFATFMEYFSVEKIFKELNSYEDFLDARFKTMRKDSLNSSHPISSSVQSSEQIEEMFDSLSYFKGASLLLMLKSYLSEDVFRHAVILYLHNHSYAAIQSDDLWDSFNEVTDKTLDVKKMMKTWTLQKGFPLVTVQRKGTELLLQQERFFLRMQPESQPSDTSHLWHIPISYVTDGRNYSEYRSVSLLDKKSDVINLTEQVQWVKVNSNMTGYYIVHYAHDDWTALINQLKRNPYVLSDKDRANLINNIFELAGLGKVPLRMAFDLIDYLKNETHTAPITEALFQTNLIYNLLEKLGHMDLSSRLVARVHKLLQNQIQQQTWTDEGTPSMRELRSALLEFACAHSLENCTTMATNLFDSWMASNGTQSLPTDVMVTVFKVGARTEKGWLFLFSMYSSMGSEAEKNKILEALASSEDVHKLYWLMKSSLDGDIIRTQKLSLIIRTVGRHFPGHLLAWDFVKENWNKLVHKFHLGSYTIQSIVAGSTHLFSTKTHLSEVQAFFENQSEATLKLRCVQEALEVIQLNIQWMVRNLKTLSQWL

| Compound | AC200 | activation (at 11 µM (top of the series)) | other results |
| --- | --- | --- | --- |
| COC(=O)[C@H]1[C@H](CO)[C@H]2Cn3c(ccc(-c4ccncc4)c3=O)[C@H]2N1Cc1ccccc1F |  | 19% (inactive) |  |
| CC(=O)N1[C@@H]2c3ccc(/C=C/c4ccccc4)c(=O)n3C[C@H]1[C@H](CO)[C@H]2C(=O)N1CCOCC1 | 1100 nM |  |  |
| CCn1cc(CN2CCCC(C(=O)Nc3ccc(-c4nc5ccccc5[nH]4)cc3)C2)c(C)n1 (centres undefined) |  | -5.33% (inactive) |  |
| N#Cc1c(N)n(CCNC(=O)c2ccccc2)c2nc3ccccc3nc12 | > 2600 nM (inactive) |  |  |
| C[C@@H]1CCCCO[C@@H](CN(C)Cc2ccc3c(c2)OCO3)[C@@H](C)CN([C@H](C)CO)C(=O)c2cc(NS(=O)(=O)c3cccs3)ccc2O1 |  | -8.52% (inactive) |  |
| COc1ccc(CN(C)C[C@@H]2OCCCC[C@H](C)Oc3ccc(NS(=O)(=O)c4cccs4)cc3C(=O)N([C@@H](C)CO)C[C@@H]2C)cc1 |  | 10.9% (inactive) |  |
| C/C(=N\NC(=O)CC#N)c1cc2ccc(O)cc2oc1=O | 1080 nM |  |  |
| COc1cc2cc(C(=O)N3CCN(Cc4ccc5c(c4)OCO5)CC3)c(=O)oc2cc1OC |  |  | activation (at 2.6 µM (top of the series)): 150% (inactive) |
| Cc1ccc(S(=O)(=O)c2cc3ccc(O)cc3oc2=O)cc1C | 362 nM |  |  |
| C[C@@H]1CCCCO[C@@H](CN(C)C)[C@@H](C)CN([C@@H](C)CO)C(=O)c2cc(NS(=O)(=O)c3ccc(Cl)cc3)ccc2O1 |  | -6.93% (inactive) |  |
| Cc1cc(=O)oc2c(CN3CCCC3)c(O)c(Cl)cc12 | 673 nM |  |  |
| CCCN(C)C[C@@H]1OCCCC[C@@H](C)Oc2ccc(NS(=O)(=O)c3ccc(F)cc3)cc2C(=O)N([C@H](C)CO)C[C@@H]1C |  | -17.1% (inactive) |  |
| C[C@H]1CN([C@@H](C)CO)C(=O)c2cccc(NC(=O)Nc3ccc(C(F)(F)F)cc3)c2O[C@@H]1CN(C)C |  | -7.32% (inactive) |  |
| Cc1ccccc1-c1ccc2c(c1)O[C@@H](CN(C)Cc1ccc(C(=O)O)cc1)[C@@H](C)CN([C@@H](C)CO)S2(=O)=O |  | 4.16% (inactive) |  |

More lines, main results first:

| AC200 | activation (at 11 µM (top of the series)) | Compound | other results |
| --- | --- | --- | --- |
| 493 nM |  | COc1ccc(CNCc2c(O)c(Cl)cc3c(C)c(C)c(=O)oc23)c(OC)c1 |  |
|  | -36.2% (inactive) | CCCN(C)C[C@@H]1OCCCC[C@H](C)Oc2ccc(NC(=O)Nc3ccc(F)cc3)cc2C(=O)N([C@H](C)CO)C[C@@H]1C |  |
|  | 10% (inactive) | COc1ccc(NC(=O)Nc2ccc3c(c2)C(=O)N([C@H](C)CO)C[C@@H](C)[C@H](CN(C)Cc2ccc(C(=O)O)cc2)OCCCC[C@@H](C)O3)cc1 |  |
|  | 36.7% (inactive) | Cc1noc(C)c1NC(=O)N(C)C[C@@H]1Oc2c(NC(=O)Nc3ccc(F)cc3)cccc2C(=O)N([C@H](C)CO)C[C@@H]1C |  |
| 638 nM |  | CCCc1cc(=O)oc2c(CN(CC)CC)c(O)c(Cl)cc12 |  |
|  | -6.39% (inactive) | C[C@@H]1CCCCO[C@@H](CN(C)CC2CC2)[C@@H](C)CN([C@H](C)CO)C(=O)c2cc(NS(=O)(=O)c3ccc(Cl)cc3)ccc2O1 |  |
|  | -25.6% (inactive) | O=C(O)c1ccccc1NS(=O)(=O)c1cccc(-n2sc3ccccc3c2=O)c1 |  |
|  | 10% (inactive) | CC(=O)N1CCN(C(=O)C2(NC(=O)Nc3ccc(C)cc3)CCCCC2)CC1 |  |
| 1350 nM |  | CC1CN(Cc2cc(=O)oc3cc(O)c(Cl)cc23)CC(C)O1 (centres undefined) |  |
|  | -3.97% (inactive) | C[C@@H]1CCCCO[C@@H](CN(C)Cc2ccc(C(=O)O)cc2)[C@H](C)CN([C@@H](C)CO)C(=O)c2cc(NS(=O)(=O)c3ccc(Cl)cc3)ccc2O1 |  |
